Literature values in PMC3206815, “An Essential Farnesylated Kinesin in Trypanosoma brucei” (PLoS ONE, 2011).

Target: T1, TB-PFT (T. brucei protein farnesyl transferase) (Trypanosoma brucei, UniProt Q57U08+Q580J3)
T1 construct: gene Tb07.8P12.660; heterodimer
T1 sequence (Q57U08 1-585): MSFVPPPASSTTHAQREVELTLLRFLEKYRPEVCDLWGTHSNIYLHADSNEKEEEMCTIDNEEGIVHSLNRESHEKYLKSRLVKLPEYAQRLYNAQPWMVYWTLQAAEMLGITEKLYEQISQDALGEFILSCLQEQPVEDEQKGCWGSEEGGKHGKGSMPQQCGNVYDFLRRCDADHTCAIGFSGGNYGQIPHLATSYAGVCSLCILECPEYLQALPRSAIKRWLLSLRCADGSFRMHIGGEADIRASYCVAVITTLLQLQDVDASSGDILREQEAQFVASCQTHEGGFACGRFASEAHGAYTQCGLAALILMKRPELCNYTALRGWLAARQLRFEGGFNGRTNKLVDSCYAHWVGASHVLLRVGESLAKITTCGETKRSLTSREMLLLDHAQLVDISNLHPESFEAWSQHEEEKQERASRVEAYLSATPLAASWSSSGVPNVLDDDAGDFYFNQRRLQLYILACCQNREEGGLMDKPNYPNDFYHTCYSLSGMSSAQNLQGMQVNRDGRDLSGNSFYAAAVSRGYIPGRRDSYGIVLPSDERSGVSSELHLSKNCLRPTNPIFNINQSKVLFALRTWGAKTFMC
T1 sequence (Q580J3 1-612): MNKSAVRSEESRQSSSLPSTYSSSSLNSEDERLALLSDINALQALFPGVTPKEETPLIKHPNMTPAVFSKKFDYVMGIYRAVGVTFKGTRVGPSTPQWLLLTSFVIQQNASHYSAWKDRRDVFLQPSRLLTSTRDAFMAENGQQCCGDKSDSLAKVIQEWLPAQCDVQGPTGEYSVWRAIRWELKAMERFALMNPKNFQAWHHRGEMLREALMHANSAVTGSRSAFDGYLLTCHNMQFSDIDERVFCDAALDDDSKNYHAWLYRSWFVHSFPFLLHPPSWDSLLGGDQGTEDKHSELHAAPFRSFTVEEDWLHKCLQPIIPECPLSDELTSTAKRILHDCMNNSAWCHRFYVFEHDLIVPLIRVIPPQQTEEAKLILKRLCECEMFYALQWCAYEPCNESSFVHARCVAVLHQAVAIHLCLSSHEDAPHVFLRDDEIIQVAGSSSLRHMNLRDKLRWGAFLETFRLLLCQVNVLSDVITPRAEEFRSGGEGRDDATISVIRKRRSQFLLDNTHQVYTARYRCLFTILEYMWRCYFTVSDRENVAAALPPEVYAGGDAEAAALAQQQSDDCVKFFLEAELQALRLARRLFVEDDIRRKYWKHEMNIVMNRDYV
Assay: PFT inhibition, method not described here
Format: biochemical
Conditions: value printed without citation or assay method; cited from earlier work

Substance: LN-59
- IC50: 35 nM
